# Assay results: patent publication US11109593B2, “Isoxazolin-5-one derivative and herbicide containing same as active ingredient” (HOKKO CHEMICAL INDUSTRY CO., LTD., priority 2017, dated 2021)
# Key:
# Format in all cases: in vivo
# Scirpus juncoides [1] = assay: Test Example 2: herbicidal effect test by treatment during growing period in paddy rice cultivation (seven days after seeding); details: 120 g/10a active ingredient, assessed 14 days after treatment, dry weight vs untreated area
# Experimental: (§1) This test was conducted in a double system per one agent solution concentration area, and the herbicidal rates (%) were determined by the following equation (Math. 1) on 14 days after the treatment with the agents. Herbicidal Rate (%)={1-(Average Dry Weight (g) of Plant of Treated Area)/(Average Dry Weight (g) of Plant of Untreated Area)}×100 [Math. 1]
# (§2) Herbicidal Effect Test by Treatment During Growing Period in Paddy Rice Cultivation
# (§3) Wagner pots with an area of 1/10000 ares were filled with a paddy soil, and after adding water, a compound fertilizer (N:P:K=17:17:17) was mixed, followed by soil puddling. Then, Echinochloa crus-galli, broad leaf weeds (Lindernia pyxidaria and Monochoria vaginalis) and Scirpus juncoides, 30 seeds each, were sown in a depth of 0 to 1 cm. Water was poured immediately after seeding, and the water depth was kept at about 3 cm. The subsequent management was conducted in a glass greenhouse. Emulsions prepared using the compounds in Table 4 below according to Formulation Example 5 were diluted with water seven days after seeding, and a certain amount of the water-diluted agent solutions were dropped. The converted amount of the applied active ingredient corresponded to 120 g per 10 ares. The test was conducted in a double system per one agent solution concentration area, and the herbicidal rates (%) were determined by the equation (Math. 1) on 14 days after the treatment with the agents. […] The compound numbers in Table 4 are the same as those in Table 1 and Table 2 above.
# [2] = system: broad leaf weeds (Lindernia pyxidaria and Monochoria vaginalis); assay: as above; details: 120 g/10a active ingredient, assessed 14 days after treatment, dry weight vs untreated area
# Experimental: as §1, §2, §3
# Echinochloa crus-galli [3] = assay: as above; details: 120 g/10a active ingredient, assessed 14 days after treatment, dry weight vs untreated area
# Experimental: as §1, §2, §3
# Scirpus juncoides [4] = assay: Test Example 1: herbicidal effect test by treatment of rice paddy soil (immediately after seeding); details: 120 g/10a active ingredient, dry weight vs untreated area, 14 days after treatment
# Experimental: (§4) Herbicidal Effect Test by Treatment of Rice Paddy Soil
# (§5) Wagner pots with an area of 1/10000 ares were filled with a paddy soil, and after adding water, a compound fertilizer (N:P:K=17:17:17) was added, followed by soil puddling. Then, Echinochloa crus-galli, broad leaf weeds (Lindernia pyxidaria and Monochoria vaginalis) and Scirpus juncoides, 30 seeds each, were sown in a depth of 0 to 1 cm. Water was poured immediately after seeding, and the water depth was kept at about 3 cm. The subsequent management was conducted in a glass greenhouse. Immediately after that, emulsions prepared using the compounds in Table 3 below according to Formulation Example 5 were diluted with water, and a certain amount of the water-diluted agent solutions were dropped. The converted amount of the applied active ingredient corresponded to 120 g per 10 ares.
# as §1
# (§6) The compound numbers in Table 3 are the same as those in Table 1 and Table 2 above.
# [5] = system: broad leaf weeds (Lindernia pyxidaria and Monochoria vaginalis); assay: as above; details: 120 g/10a active ingredient, dry weight vs untreated area, 14 days after treatment
# Experimental: as §4, §5, §1, §6
# Echinochloa crus-galli [6] = assay: as above; details: 120 g/10a active ingredient, dry weight vs untreated area, 14 days after treatment
# Experimental: as §4, §5, §1, §6
Compound,Herbicidal rate (%) Scirpus juncoides (Scirpus juncoides [1]),Herbicidal rate (%) Lindernia pyxidaria [2],Herbicidal rate (%) Monochoria vaginalis [2],Herbicidal rate (%) Echinochloa crus-galli (Echinochloa crus-galli [3]),Herbicidal rate (%) Scirpus juncoides (Scirpus juncoides [4]),Herbicidal rate (%) Lindernia pyxidaria [5],Herbicidal rate (%) Monochoria vaginalis [5],Herbicidal rate (%) Echinochloa crus-galli (Echinochloa crus-galli [6])
Cc1c(Cc2ccccc2NS(=O)(=O)C(F)(F)F)c(=O)on1Cc1ccc(C(C)(C)C)cc1 [Compound 1-192],60%,80%,80%,40%,40%,100%,100%,90%
Cc1c(Cc2ccccc2NS(=O)(=O)C(F)(F)F)c(=O)on1Cc1cccc(C(F)(F)F)c1 [Compound 1-193],70%,80%,80%,60%,90%,100%,100%,90%
Cc1c(Cc2ccccc2NS(=O)(=O)C(F)(F)F)c(=O)on1Cc1ccc(C(F)(F)F)cc1 [Compound 1-194],60%,60%,60%,40%,80%,100%,80%,80%
COc1ccc(Cn2oc(=O)c(Cc3ccccc3NS(=O)(=O)C(F)(F)F)c2C)cc1 [Compound 1-195],80%,40%,40%,80%,90%,70%,60%,90%
Cc1c(Cc2ccccc2NS(=O)(=O)C(F)(F)F)c(=O)on1Cc1ccc(SC(F)(F)F)cc1 [Compound 1-198],40%,90%,90%,40%,80%,100%,100%,80%
Cc1c(Cc2ccccc2NS(=O)(=O)C(F)(F)F)c(=O)on1Cc1ccc(F)cc1F [Compound 1-199],80%,80%,80%,90%,90%,100%,100%,100%
Cc1c(Cc2ccccc2NS(=O)(=O)C(F)(F)F)c(=O)on1Cc1ccc(F)c(F)c1 [Compound 1-200],80%,90%,90%,60%,90%,100%,100%,90%
Cc1c(Cc2ccccc2NS(=O)(=O)C(F)(F)F)c(=O)on1Cc1ccc(F)cc1Cl [Compound 1-201],40%,70%,70%,40%,100%,90%,80%,90%
Cc1c(Cc2ccccc2NS(=O)(=O)C(F)(F)F)c(=O)on1Cc1ccc(F)c(Cl)c1 [Compound 1-202],40%,60%,60%,40%,80%,100%,90%,100%
Cc1c(Cc2ccccc2NS(=O)(=O)C(F)(F)F)c(=O)on1C(C)c1ccc(F)cc1 (stereo not drawn) [Compound 1-204],80%,80%,80%,80%,90%,90%,90%,100%
Cc1c(Cc2ccccc2NS(=O)(=O)C(F)(F)F)c(=O)on1C(C)c1ccccc1Cl (stereo not drawn) [Compound 1-205],80%,90%,90%,50%,90%,100%,100%,100%
Cc1c(Cc2ccccc2NS(=O)(=O)C(F)(F)F)c(=O)on1C(C)c1cccc(Cl)c1 (stereo not drawn) [Compound 1-206],80%,80%,90%,60%,90%,100%,100%,90%
Cc1c(Cc2ccccc2NS(=O)(=O)C(F)(F)F)c(=O)on1C(C)c1ccc(Cl)cc1 (stereo not drawn) [Compound 1-207],70%,60%,70%,60%,90%,100%,100%,100%
Cc1c(Cc2ccccc2NS(=O)(=O)C(F)(F)F)c(=O)on1C(C)c1ccc(OC(F)(F)F)cc1 (stereo not drawn) [Compound 1-209],90%,60%,80%,40%,70%,60%,60%,90%
Cc1c(Cc2ccccc2NS(=O)(=O)C(F)(F)F)c(=O)on1CC(F)(F)c1ccccc1 [Compound 1-220],90%,100%,90%,40%,90%,100%,100%,90%
Cc1c(Cc2ccccc2NS(=O)(=O)C(F)(F)F)c(=O)on1Cc1cccs1 [Compound 1-231],60%,40%,40%,60%,80%,80%,90%,90%
Cc1c(Cc2ccccc2NS(=O)(=O)C(F)(F)F)c(=O)on1Cc1ccsc1 [Compound 1-232],60%,40%,40%,70%,90%,80%,90%,90%
Cc1c(Cc2ccccc2NS(=O)(=O)C(F)(F)F)c(=O)on1C(C)c1ccsc1 (stereo not drawn) [Compound 1-235],60%,40%,60%,50%,80%,60%,80%,90%
